In US20070141637A1, “Marker for fenestrae” (priority 2004, published 2007):

Experiments:
[1] = test system: Py4.1 cells; assay: Subtractive 2D-gel analysis of plasma membranes, latrunculin-induced versus control cells; assay type: cell-based, mouse; conditions: Py4.1 plasma membranes, Progenesis Software
Description: In one embodiment the method of identifying components of fenestrae comprises the step of Subtractive 2D-gel electrophoresis analysis. Sufficient material was pooled to generate one batch of triplicate gels for vehicle-induced and un-induced Py4.1 cells, and three sets of triplicate gels for untreated, vehicle-induced, and induced bEND5 cells (FIG. 6 and FIG. 13). All gels per cell type were analyzed collectively using ProGenesis® software (Prolific, Inc. Newark, Calif.) to obtain fold differences between the staining intensities of spots in the induced and the uninduced samples and p-values for those differences using the Students t-test (FIG. 7). In the first round of analysis, spots that qualified for one or more of the following criteria were selected: a) fold increase in staining intensity greater than 2 in the induced sample, b) p-value less than 0.05 for any fold increase, c) spot being unique in induced sample. A summary of all the spots selected for mass spectrometry, with their accompanying fold differences and p-values is shown in FIG. 15.
Methods for inducing fenestrae formation in endothelial cells are described in U.S. Provisional Patent No. 60/627,981, which is hereby incorporated by reference in its entirety. Coverslips and dishes were coated with 1% gelatin (Sigma) solution in PBS for 30 minutes at room temperature. […]

[2] = test system: bEND5 and Py4.1 cells; assay: Western blotting of candidate proteins in plasma membranes of latrunculin-induced versus control cells; assay type: cell-based, mouse; conditions: LPM versus CPM, equal amounts of protein
Description: To confirm the findings of the subtractive proteomic analysis, immunoblotting on the relevant fractions was performed with antibodies to candidate proteins. By comparing equal amounts of protein in the two conditions, change in the protein levels of cofilin, alpha-enolase, radixin, moesin, annexin II, and hnRNP K was evaluated (FIG. 9A, 9B).
Methods for inducing fenestrae formation in endothelial cells are described in U.S. Provisional Patent No. 60/627,981, which is hereby incorporated by reference in its entirety. Coverslips and dishes were coated with 1% gelatin (Sigma) solution in PBS for 30 minutes at room temperature. Endothelial cells were seeded overnight at a density equivalent to 1.5×10^6 cells per 100 mm dish. Cultures were induced with Cytochalasin B (Sigma) at 10 μM for 2 hours, with Latrunculin A (Molecular Probes) at 2.5 μM for 3 hours, or with a combination of recombinant mouse 75 ng/ml VEGF (R&D systems) for 6-72 hours and 10 μM Cytochalasin B for 2 hours. Cells were processed for biochemistry or morphology immediately after the end of the induction.
All steps in the procedure were performed on ice or in centrifuges pre-cooled to 4° C. Cells grown on 150 mm dishes were washed twice with PBS containing calcium and magnesium (Invitrogen), and once with coating buffer (20 mM MES, 135 mM NaCl, 0.5 mM CaCl2, 1 mM MgCl2, pH 5.5). […]

C/C1=C/C(=O)O[C@@H]2C[C@@H](CC[C@H](C)/C=C\C=C\CC1)O[C@@](O)([C@@H]1CSC(=O)N1)C2 [latrunculin, Latrunculin A]
spot 659 intensity, latrunculin-induced versus control samples [1]: 1.772 fold
spot 401 intensity, latrunculin-induced versus control samples ([1]; part of a train of spots (phosphorylation states)): 3.8 fold
enrichment of phosphorylated moesin, hnRNP K, cofilin and alpha-enolase in plasma membranes [2]: Enrichment in induced cells is confirmed
